Here are results for one compound from patent publication US11267809B2, “BAF complex modulating compounds and methods of using the same” (THE BOARD OF TRUSTEES OF THE LELAND STANFORD JUNIOR …, priority 2017, dated 2022).

The structures appear in SMILES notation.

One test concerns HCT116 ARID1A(+/+) cells. The experiment in a line: Cell cycle analysis after double thymidine block synchronization. The test is classed as cell-based, human. On the procedure:
To investigate this, we synchronized cells in the early G1/S phase and then tracked their progression through the cell cycle upon release into media containing BAFi. To assess the full cell cycle, time points were collected beginning at early G0/G1 of the second cycle following release from thymidine block. […] This is consistent with our observation that BAFi independently has minimal toxicity or effects on proliferation. […] Further, we observe that when BAFi cells are treated with VE-821, their decreased entry and slowed progression through S Phase results in an inability to successfully complete their transition through the cell cycle, akin to knockout of ARID1A. […]
For hour-by-hour analysis, cells were collected, rinsed with PBS, and vortexed while adding 1mL ice cold 70% ethanol. […] Individual cells were gated based on forward and side scatter, auto fluorescent cells were omitted, and remaining cells were then analyzed for propidium iodide levels. To determine the percent of cells in each phase, DNA content histograms histograms were analyzed using R-package “mixtools” EM algorithm for mixtures of univariate normals. The areas of each mixed normal distribution were calculated to represent the total number of cells in each phase of the cell cycle. […] ESCs were incubated with BrdU for 1 h and the percent of cells in G2/M, stained with 7-AAD and analyzed on a BD FACScan.

Another test has as its system HCT116 cells. Put plainly: Synergy viability assay (CellTitre blue, 5 days), HCT116 ARID1A(+/+). It is filed as cell-based, human. The protocol: To assess drug synergy, the Chou-Talalay method was employed to provide a mechanism-independent method to quantify the synergism of drug interactions. This method combines elements of the Scatchard, Michaelis-menten, Hill, and Henderson-Hasslebalch equations through the law of mass-action^31,32 to generate a quantifiable assessment of synergy. Molecules were tested both independently and then in 25 different combinations in HCT116 cells for 5 days as described above. To determine a combination index (CI), median-effect equations of the two respective molecules were determined from their respective dose responses. The median-effect equation was used to calculate a median-effect dose, and (Dx)ATRi,BAFi values which correspond for the respective doses of the BAFi and ATRi compounds and correlate with a given percentage of cells affected by the individual treatments. Normalized index values (IATRi, IBAFi), and the combination index are a ratio between the treatment dose, and the Dx for a given fraction of affected cells. Combination indices less than 0.9 are considered synergistic, while values ranging from 0.9 to 1.1 are additive, and CIs above 1.1 are antagonistic.
Viability assays were performed in 384-well plates. Cells were plated at 500 cells/well. Each drug was administered in 5-doses with 4 replicates per plate, and each 5×5 drug combination was administered with 8 replicates per plate, 24 hours after seeding. All error bars represent 4 or 8 technical replicates averaged over 3 independent experiments. Media containing fresh drug was replaced every 48 hours. After 5 days, cellular viability was measured using CellTitre blue, as described by the manufacturer.

For the next test, the system named is Bmi1 expression. Put plainly: Screen for increased expression of Bmi1 (BAF target) in mESCs. It is filed as cell-based, mouse. To be noted: mESC screen. The source says: This synthetic lethal interaction has been attributed to the increased dependency of ARID1A-deficient cells on the ATR-mediated G2/M decatenation checkpoint following loss of ARID1A-mediated interactions of the BAF complex with TOP2A^7,27. Utilizing the knowledge that one of the BAF complex's diverse and essential functions involves repression of specific genes in embryonic stem cells^28, we developed a screening strategy to identify compounds that upregulate target genes repressed by the embryonic BAF complex (esBAF) in mESCs including Bmil, Ringl, and Fgf4 (FIG. 1b)^16,29. Given that the loss of ARID1A (a functionally critical, mechanistically elusive, and frequently mutated subunit of the BAF complex) sensitizes cancer cells to inhibition of the ATR kinase, we sought to identify whether our putative esBAF inhibitors (FIG. 1c) might phenocopy the loss of ARID1A in cancer cells and thereby synergize with ATR inhibitors.
We recently completed a large-scale screen to identify small molecules that result in increased expression of Bmi1, a known genetic target of BAF whose expression is increased about 6- to 12-fold upon deletion of the SMARCA4 ATPase subunit of the BAF complex^29. […]

Turning to `CO[C@H]1CN(C)C(=O)c2cc(NC(=O)NC(C)C)ccc2OC[C@H](C)N(Cc2ccc(-c3ccccn3)cc2)C[C@@H]1C` [Baficillin1], in the test with HCT116 ARID1A(+/+) cells (10 uM Baficillin1 in combination with ATRi (VE-821 10 uM)), the S/G2 crossover time is recorded as approximately 7.5 h. The same compound returned a cell cycle rate with HCT116 ARID1A(+/+) cells (Baficillin1 10 uM alone) of approximately 11 hr per cycle. Moreover, the dose reduction index in the test with HCT116 cells (combination of VE-821 and Baficillin1, higher concentrations) is more than 100 fold; in the test with HCT116 cells (combination of VE-821 and Baficillin1, low concentrations) it was “over 10 fold”. Further, the “average combination index (CI)” value in the test on HCT116 cells (with VE-821 (1.25-20 uM each, 25 combinations), 5 days, Chou-Talalay) is given as 0.53±0.05. In addition, in the test on Bmi1 expression, the “activation of Bmi1 and other BAF targets” value is “robust activation”.
